Test results published in patent publication US7482363B2, “Piperidine derivatives useful as modulators of chemokine receptor activity” (AstraZeneca AB, priority 2002, dated 2009).

Key:
[1] = tested on: Human eosinophils (eotaxin mediated chemotaxis); experiment: Human eosinophil chemotaxis; type: cell-based
Protocol: Human Eosinophil Chemotaxis
Human eosinophils were isolated from EDTA anticoagulated peripheral blood as previously described (Hansel et al., J. Immunol. Methods, 1991, 145, 105-110). The cells were resuspended at 10×10^6 ml^−1 in RPMI containing 200 IU/ml penicillin, 200 μg/ml streptomycin sulphate and supplemented with 10% HIFCS, at room temperature.
Eosinophils (700 μl) were pre-incubated for 15 mins at 37° C. with 7 μl of either vehicle or compound (100× required final concentration in 10% DMSO). The chemotaxis plate (ChemoTx, 3 μm pore, Neuroprobe) was loaded by adding 28 μl of a concentration of eotaxin (0.1 to 100 nM) containing a concentration of a compound according to the Examples or solvent to the lower wells of the chemotaxis plate. The filter was then placed over the wells and 25 μl of eosinophil suspension were added to the top of the filter. The plate was incubated for 1 hr at 37° C. in a humidified incubator with a 95% air/5% CO2 atmosphere to allow chemotaxis.
The medium, containing cells that had not migrated, was carefully aspirated from above the filter and discarded. The filter was washed once with phosphate buffered saline (PBS) containing 5 mM EDTA to remove any adherent cells. […] The number of eosinophils migrating was quantified according to the method of Strath et al., J. Immunol. […]

human H1 receptor = molecular target: T1, human H1 receptor (Homo sapiens, UniProt P35367); experiment: Histamine H1 receptor binding, competition displacement of [3H]-pyrilamine; details: 1 nM [3H]-pyrilamine, membranes of recombinant CHO-K1 cells expressing the human H1 receptor; read-out: H1 antagonism pKi (converted)
T1 construct: purchased Euroscreen SA, Brussels, Belgium ES-390-M; host or cells: CHO-K1
Protocol: Histamine H1 receptor binding activity of compounds of the invention was assessed by competition displacement of 1 nM [3H]-pyrilamine (Amersham, Bucks, Product code TRK 608, specific activity 30 Ci/mmol) to 2 μg membranes prepared from recombinant CHO-K1 cells expressing the human H1 receptor (Euroscreen SA, Brussels, Belgium, product code ES-390-M) in assay buffer (50 mM Tris pH 7.4 containing 2 mM MgCl2, 250 mM sucrose and 100 mM NaCl) for 1 hour at room temperature.

T1 sequence (P35367 whole entry): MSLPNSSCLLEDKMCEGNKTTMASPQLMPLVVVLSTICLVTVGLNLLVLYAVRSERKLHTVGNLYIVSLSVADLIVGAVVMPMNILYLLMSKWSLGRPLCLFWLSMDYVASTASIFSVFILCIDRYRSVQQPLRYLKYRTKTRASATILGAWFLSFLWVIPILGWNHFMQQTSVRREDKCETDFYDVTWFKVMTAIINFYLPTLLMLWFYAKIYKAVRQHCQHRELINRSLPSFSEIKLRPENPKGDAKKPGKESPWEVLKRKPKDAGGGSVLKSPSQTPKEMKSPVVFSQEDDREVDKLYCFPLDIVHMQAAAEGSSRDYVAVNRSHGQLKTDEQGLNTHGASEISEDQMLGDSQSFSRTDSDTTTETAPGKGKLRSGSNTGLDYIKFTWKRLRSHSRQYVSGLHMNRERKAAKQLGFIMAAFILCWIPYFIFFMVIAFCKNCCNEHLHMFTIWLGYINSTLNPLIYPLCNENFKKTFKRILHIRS

In the case of `COc1cccc(OC)c1C(C(=O)O)N1CCC(N2CCC(Oc3ccc(Cl)c(Cl)c3)CC2)CC1` (stereo not drawn) [Example 2, 4-(3,4-dichlorophenoxy)-α-(2,6-dimethoxyphenyl)-[1,4′-bipiperidine]-1′-acetic acid], the “% Inhibition (3 nM Human Eotaxin)” value [1] is reported as 90% and the Ki (human H1 receptor) is reported as 158 nM.
In the case of `Cc1cc(Cl)ccc1OC1CCN(C2CCN(C(C(=O)O)c3ccccc3)CC2)CC1` (stereo not drawn) [Example 3, 4-(4-chloro-2-methylphenoxy)-α-phenyl-[1,4′-bipiperidine]-1′-acetic acid], the “% Inhibition (3 nM Human Eotaxin)” value [1] is reported as 105% and the Ki (human H1 receptor) is reported as 50.1 nM.
